Eight compounds from PubChem BioAssay (NCI) can be followed below.

Test systems include HCT-15 colon; SN12C renal; SF-268 CNS; RXF 393 renal; SK-OV-3 ovarian; OVCAR-3 ovarian; NCI/ADR-RES ovarian; MDA-N; SK-MEL-5 melanoma; UACC-257 melanoma; A498 renal; UO-31 renal; HT29 colon; SK-MEL-2 melanoma; RPMI-8226 leukemia.
Holding throughout (assay): NCI-60 cell line screen, 48 h

SMILES strings stand for the structures.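 Results reflect a 48-hour exposure of cells in 96-well plates to compound at five concentrations. Definition used: TGI = concentration required for complete inhibition of growth.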

With `CSc1nc(C)c(CCCl)c(Cl)n1`, the TGI with HCT-15 colon, in the assay with SN12C renal, in the assay with SF-268 CNS, in the assay with RXF 393 renal, in the assay with SK-OV-3 ovarian and in the assay on OVCAR-3 ovarian was > 100 µM each time. Moreover, the TGI in the assay on NCI/ADR-RES ovarian, with MDA-N, in the assay on SK-MEL-5 melanoma, in the assay with UACC-257 melanoma, in the assay on A498 renal and in the assay on UO-31 renal was > 100 µM each time. The TGI with HT29 colon is > 100 µM.

On to `CNc1ncnc2c1cnn2Cc1cn(CCCCO)nn1`, for which the TGI with HCT-15 colon, in the assay with SN12C renal, in the assay on SF-268 CNS, in the assay on RXF 393 renal, with SK-OV-3 ovarian and in the assay with OVCAR-3 ovarian was > 100 µM each time. Besides, the TGI in the assay with NCI/ADR-RES ovarian, with MDA-N, in the assay with SK-MEL-5 melanoma, in the assay on UACC-257 melanoma, in the assay with A498 renal and in the assay with SK-MEL-2 melanoma was > 100 µM in each case. Moreover, the TGI with UO-31 renal, in the assay with HT29 colon and with RPMI-8226 leukemia was > 100 µM throughout.

`Cc1cc(C#N)c(Nc2ccccc2[N+](=O)[O-])s1`: the TGI was > 100 µM with HCT-15 colon; 67.7 µM with SN12C renal; > 100 µM with SF-268 CNS; 47 µM in the assay with RXF 393 renal; > 100 µM in the assay with SK-OV-3 ovarian; 71.5 µM in the assay on OVCAR-3 ovarian. Further, the TGI was 53 µM with NCI/ADR-RES ovarian; 30.9 µM with MDA-N; > 100 µM in the assay with UACC-257 melanoma; > 100 µM in the assay with A498 renal; > 100 µM with UO-31 renal; > 100 µM in the assay on RPMI-8226 leukemia.

As to `COc1ccccc1N1C(=O)CC(=O)N(C(=O)CCCCCCCCC(=O)N2C(=O)CC(=O)N(c3ccccc3OC)C2=S)C1=S`, the TGI with HCT-15 colon, with SN12C renal, in the assay with SF-268 CNS, in the assay with RXF 393 renal, with SK-OV-3 ovarian and in the assay with OVCAR-3 ovarian was > 100 µM in each case. The TGI with NCI/ADR-RES ovarian, with MDA-N, with SK-MEL-5 melanoma, in the assay with UACC-257 melanoma, with A498 renal and with SK-MEL-2 melanoma was > 100 µM each time. Further, the TGI in the assay on UO-31 renal, with HT29 colon and in the assay on RPMI-8226 leukemia was > 100 µM throughout.

As to `CCOC(=O)NC(=S)NC(C)c1ccccc1` (centres undefined), the TGI in the assay on HCT-15 colon, in the assay with SF-268 CNS, with RXF 393 renal, in the assay with SK-OV-3 ovarian, in the assay on OVCAR-3 ovarian and in the assay on NCI/ADR-RES ovarian was > 100 µM each time. Moreover, the TGI in the assay with MDA-N, in the assay on SK-MEL-5 melanoma, with UACC-257 melanoma, in the assay on SK-MEL-2 melanoma, with UO-31 renal and in the assay with HT29 colon was > 100 µM each time. Also, in the assay on RPMI-8226 leukemia, the TGI was > 100 µM.

Regarding `O=C(O)CCc1nc2cc3ccccc3cc2[nH]c1=O`, the TGI in the assay on HCT-15 colon, in the assay on SN12C renal, in the assay with SF-268 CNS, with RXF 393 renal, with SK-OV-3 ovarian and in the assay with OVCAR-3 ovarian was > 100 µM each time. Also, the TGI with NCI/ADR-RES ovarian, with MDA-N, with SK-MEL-5 melanoma, in the assay with UACC-257 melanoma, with A498 renal and in the assay with SK-MEL-2 melanoma was > 100 µM throughout. Moreover, the TGI with UO-31 renal and with HT29 colon was > 100 µM each time.

With `COC(=O)CCC1(O)C=CC(=O)C=C1`, the TGI in the assay on HCT-15 colon is 43.2 µM; in the assay with SN12C renal, > 100 µM; in the assay on SF-268 CNS, > 100 µM; with RXF 393 renal it was 61.5 µM; in the assay on OVCAR-3 ovarian, 59.5 µM; with NCI/ADR-RES ovarian, > 100 µM. Besides, the TGI is > 100 µM with MDA-N; > 100 µM in the assay on SK-MEL-5 melanoma; 66.3 µM with UACC-257 melanoma; > 100 µM in the assay on A498 renal; > 100 µM in the assay on SK-MEL-2 melanoma; > 100 µM with UO-31 renal. Also, the TGI in the assay on HT29 colon and in the assay with RPMI-8226 leukemia was > 100 µM throughout.

Regarding `c1cc(C[S+]2CCCC2)oc1C[S+]1CCCC1`, the TGI in the assay on HCT-15 colon, with SN12C renal, in the assay with SF-268 CNS, in the assay on RXF 393 renal, in the assay on SK-OV-3 ovarian and with OVCAR-3 ovarian was > 100 µM throughout. The TGI with NCI/ADR-RES ovarian, in the assay with MDA-N, in the assay with SK-MEL-5 melanoma, in the assay with UACC-257 melanoma, in the assay with A498 renal and with UO-31 renal was > 100 µM each time. The TGI in the assay on HT29 colon was > 100 µM.
